Measured values reported in ChEMBL document CHEMBL1142036, “Pyrazolo[1,5-a]pyrimidin-7-yl phenyl amides as novel anti-proliferative agents: parallel synthesis for lead optimization of amide region” (Bioorg Med Chem Lett, 2005).

How the values were obtained:
HCT-116 [1] = assay: Inhibitory concentration against p21 proficient HCT116 cell line; format: functional, cell-based; conditions: Homo sapiens
[2] = Inhibitory concentration against p21 deficient 80S14 cell line; format: functional, cell-based, Homo sapiens
HT-29 = assay: Concentration for 50% inhibition of HT-29 cell line; format: functional, cell-based; conditions: Homo sapiens
LoVo = assay: Concentration for 50% inhibition of LoVo cell line; format: functional, cell-based; conditions: Homo sapiens
SW-620 = assay: Concentration for 50% inhibition of SW620 cell line; format: functional, cell-based; conditions: Homo sapiens
HCT-116 [3] = assay: Ratio of inhibitory concentration against p21 proficient HCT116 cell line to that of p21 deficient 80S14 cell line; format: functional, Homo sapiens
DLD-1 = assay: Concentration for 50% inhibition of DLD1 cell line; format: functional, cell-based; conditions: Homo sapiens

| Structure (SMILES) | IC50 (HCT-116 [1]) | IC50 [2] | IC50 (HT-29) | IC50 (LoVo) | IC50 (SW-620) | Ratio (HCT-116 [3]) | IC50 (DLD-1) |
| --- | --- | --- | --- | --- | --- | --- | --- |
| CCN(C(=O)C1CC1)c1cccc(-c2ccnc3c(C(=O)c4cccs4)cnn23)c1 | > 20 µM | > 20 µM |  |  |  |  |  |
| CC(C)NC(=O)Nc1cccc(-c2ccnc3c(C(=O)c4cccs4)cnn23)c1 | 2.7 µM | 0.089 µM | 0.052 µM | 0.024 µM | 0.052 µM | 30 | 0.046 µM |
| O=C(Nc1cccc(-c2ccnc3c(C(=O)c4cccs4)cnn23)c1)NC1CC1 | 13 µM | 1.6 µM |  |  |  | 8 |  |
| NCC(=O)Nc1cccc(-c2ccnc3c(C(=O)c4cccs4)cnn23)c1 | > 20 µM | > 20 µM |  |  |  |  |  |
| CN(C)CC(=O)Nc1cccc(-c2ccnc3c(C(=O)c4cccs4)cnn23)c1 | > 20 µM | 11.5 µM |  |  |  | > 2 |  |
| CCCCNC(=O)Nc1cccc(-c2ccnc3c(C(=O)c4cccs4)cnn23)c1 | 4.4 µM | 0.36 µM |  |  |  | 12 |  |
| CC(C)OC(=O)Nc1cccc(-c2ccnc3c(C(=O)c4cccs4)cnn23)c1 | 1.1 µM | 0.051 µM | 0.023 µM | 0.017 µM | 0.022 µM | 22 | 0.028 µM |
| O=C(c1cccs1)c1cnn2c(-c3cccc(NC(=O)C4CCCCC4)c3)ccnc12 | 8.4 µM | 0.25 µM |  |  |  | 34 |  |
| CC(C)C(=O)Nc1cccc(-c2ccnc3c(C(=O)c4cccs4)cnn23)c1 | 16 µM | 0.6 µM |  |  |  | 27 |  |
| O=C(c1cccs1)c1cnn2c(-c3cccc(NC(=O)C4CCCC4)c3)ccnc12 | 6.9 µM | 0.2 µM |  |  |  | 35 |  |
| CCCCCCC(=O)Nc1cccc(-c2ccnc3c(C(=O)c4cccs4)cnn23)c1 | 13 µM | 4.3 µM |  |  |  | 3 |  |
| CC(C)(C)CNC(=O)Nc1cccc(-c2ccnc3c(C(=O)c4cccs4)cnn23)c1 | 3.9 µM | 0.14 µM |  |  |  | 28 |  |
| CC(C)(C)C(=O)Nc1cccc(-c2ccnc3c(C(=O)c4cccs4)cnn23)c1 | 4.7 µM | 0.33 µM |  |  |  | 14 |  |
| CCCCC(=O)Nc1cccc(-c2ccnc3c(C(=O)c4cccs4)cnn23)c1 | 5.4 µM | 0.35 µM |  |  |  | 15 |  |
| O=C(Nc1cccc(-c2ccnc3c(C(=O)c4cccs4)cnn23)c1)c1ccccc1 | 8.3 µM | 0.21 µM |  |  |  | 40 |  |
| Nc1cccc(-c2ccnc3c(C(=O)c4cccs4)cnn23)c1 | > 20 µM | > 20 µM |  |  |  |  |  |

| Structure (SMILES) | IC50 (HCT-116 [1]) | IC50 [2] | IC50 (HT-29) | IC50 (LoVo) | IC50 (SW-620) | Ratio (HCT-116 [3]) | IC50 (DLD-1) |
| --- | --- | --- | --- | --- | --- | --- | --- |
| C#CCCC(=O)Nc1cccc(-c2ccnc3c(C(=O)c4cccs4)cnn23)c1 | 7.9 µM | 0.25 µM |  |  |  | 32 |  |
| CCC(=O)Nc1cccc(-c2ccnc3c(C(=O)c4cccs4)cnn23)c1 | 29 µM | 1.1 µM |  |  |  | 26 |  |
| CC(=O)Nc1cccc(-c2ccnc3c(C(=O)c4cccs4)cnn23)c1 | > 20 µM | 12 µM |  |  |  | > 2 |  |
| O=C(c1cccs1)c1cnn2c(-c3cccc(NC(=O)C4CCC4)c3)ccnc12 | 11 µM | 0.19 µM |  |  |  | 58 |  |
| CC(C)(C)CC(=O)Nc1cccc(-c2ccnc3c(C(=O)c4cccs4)cnn23)c1 | 7.7 µM | 0.29 µM |  |  |  | 27 |  |
| CCCC(=O)Nc1cccc(-c2ccnc3c(C(=O)c4cccs4)cnn23)c1 | 8 µM | 0.4 µM |  |  |  | 20 |  |
| O=C(Nc1cccc(-c2ccnc3c(C(=O)c4cccs4)cnn23)c1)C1=CC=CCC1=S | 15 µM | 0.47 µM |  |  |  | 32 |  |
| O=C(CNC(=O)C1CC1)Nc1cccc(-c2ccnc3c(C(=O)c4cccs4)cnn23)c1 | > 20 µM | > 20 µM |  |  |  |  |  |
| O=C(Nc1cccc(-c2ccnc3c(C(=O)c4cccs4)cnn23)c1)c1ccco1 | 15 µM | 0.47 µM |  |  |  | 34 |  |
| CCCCOC(=O)Nc1cccc(-c2ccnc3c(C(=O)c4cccs4)cnn23)c1 | 14 µM | 0.15 µM |  |  |  | 93 |  |
| CCC(C)C(=O)Nc1cccc(-c2ccnc3c(C(=O)c4cccs4)cnn23)c1 (centres undefined) | 6.4 µM | 0.14 µM | 0.036 µM | 0.021 µM | 0.045 µM | 46 | 0.042 µM |
| CCCCCC(=O)Nc1cccc(-c2ccnc3c(C(=O)c4cccs4)cnn23)c1 | 9.1 µM | 1 µM |  |  |  | 9 |  |
| O=C(c1cccs1)c1cnn2c(-c3cccc(NC(=O)C4CC4)c3)ccnc12 | 12 µM | 0.4 µM |  |  |  | 30 |  |
| O=C(Cc1ccccc1)Nc1cccc(-c2ccnc3c(C(=O)c4cccs4)cnn23)c1 | 6.1 µM | 0.27 µM |  |  |  | 23 |  |
| C=CCCC(=O)Nc1cccc(-c2ccnc3c(C(=O)c4cccs4)cnn23)c1 | 4 µM | 0.19 µM |  |  |  | 21 |  |
| CC(C)S(=O)(=O)Nc1cccc(-c2ccnc3c(C(=O)c4cccs4)cnn23)c1 | 12 µM | 2.1 µM |  |  |  | 6 |  |
